Results published in US11945794B2, “Nuclear transport modulators and uses thereof” (Karyopharm Therapeutics Inc., priority 2013, dated 2024).

Experiments:
Assay in all cases: MTT cell proliferation assay
Assay type in all cases: cell-based
3T3 cells = details: Mus musculus, NIH3T3, approximately 64-72 hours
Description: (§1) The MTT cell proliferation assay was used to study the cytotoxic properties of the compounds. The assay was performed according to the method described by Roche Molecular Biochemicals, with minor modifications. The assay is based on the cleavage of the tetrazolium salt, MTT, in the presence of an electron-coupling reagent. The water-insoluble formazan salt produced must be solubilized in an additional step. Cells grown in a 96-well tissue culture plate were incubated with the MTT solution for approximately 4 hours. After this incubation period, a water-insoluble formazan dye formed. After solubilization, the formazan dye was quantitated using a scanning multi-well spectrophotometer (ELISA reader). […] The cells were seeded at 5,000-10,000 cells in each well of 96-well plate in 100 μL of fresh culture medium and were allowed to attach overnight. The stock solutions of the compounds were diluted in 100 μL cell culture medium to obtain eight concentrations of each test compound, ranging from 1 nM to 30 μM. […] All optical densities were measured at 490 nm using a Vmax Kinetic Microplate Reader (Molecular Devices). In most cases, the assay was performed in duplicate and the results were presented as a mean percent inhibition to the negative control±SE. The following formula was used to calculate the percent of inhibition: Inhibition (%)=(1−(ODo/OD))×100.
(§2) The compounds were tested against Z138, MM1S and 3T3 cells. The Z138 cell line is a mature B-cell acute lymphoblastic leukemia cell line derived from a patient with chronic lumphocytic leukemia. The MM1S cell line was established from the peripheral blood of a human multiple myeloma patient. 3T3 cells are standard fibroblast cells; they were originally isolated from Swiss mouse embryo tissue.

Z138 cells = details: Homo sapiens, Z-138, approximately 64-72 hours
Description: as §1, §2

MM1S cells = details: Homo sapiens, MM1.S, approximately 64-72 hours
Description: as §1, §2

Compound | IC50 (3T3 cells) [µM] | IC50 (Z138 cells) [µM] | IC50 (MM1S cells) [µM]
O=C(O)/C(=C/n1cnc(-c2cc(C(F)(F)F)cc(C(F)(F)F)c2)n1)c1cccnc1 [Compound 103, (E)-3-(3-(3,5-bis(trifluoromethyl)phenyl)-1H-1,2,4-triazol-1-yl)-2-(pyridin-3-yl)acrylic acid] | > 30 | > 30 | > 30
CC(C)OC(=O)/C(=C/n1cnc(-c2cc(C(F)(F)F)cc(C(F)(F)F)c2)n1)c1ccncc1 [Compound 106, isopropyl (E)-3-(3-(3,5-bis(trifluoromethyl)phenyl)-1H-1,2,4-triazol-1-yl)-2-(pyridin-4-yl)acrylate] | – | – | 0.1 to 5
O=C(O)/C(=C/n1cnc(-c2cc(C(F)(F)F)cc(C(F)(F)F)c2)n1)c1ccncc1 [Compound 107, (E)-3-(3-(3,5-bis(trifluoromethyl)phenyl)-1H-1,2,4-triazol-1-yl)-2-(pyridin-4-yl)acrylic acid] | – | – | 5 to 30
CC(C)OC(=O)/C(=C/n1cnc(-c2cc(C(F)(F)F)cc(C(F)(F)F)c2)n1)c1nccs1 [Compound 109, isopropyl (Z)-3-(3-(3,5-bis(trifluoromethyl)phenyl)-1H-1,2,4-triazol-1-yl)-2-(thiazol-2-yl)acrylate] | – | – | 0.1 to 5
N#C/C(=C/n1cnc(-c2cc(C(F)(F)F)cc(C(F)(F)F)c2)n1)c1nccs1 [Compound 110, (Z)-3-(3-(3,5-bis(trifluoromethyl)phenyl)-1H-1,2,4-triazol-1-yl)-2-(thiazol-2-yl)acrylonitrile] | – | – | 0.1 to 5
CN(C)C(=O)/C(=C/n1cnc(-c2cc(C(F)(F)F)cc(C(F)(F)F)c2)n1)c1cccnc1 [Compound 112, (E)-3-(3-(3,5-bis(trifluoromethyl)phenyl)-1H-1,2,4-triazol-1-yl)-N,N-dimethyl-2-(pyridin-3-yl)acrylamide] | – | – | > 30
Cc1noc(C)c1/C(=C\n1cnc(-c2cc(C(F)(F)F)cc(C(F)(F)F)c2)n1)C(=O)O [Compound 117, (E)-3-(3-(3,5-bis(trifluoromethyl)phenyl)-1H-1,2,4-triazol-1-yl)-2-(3,5-dimethylisoxazol-4-yl) acrylic acid] | – | – | > 30
COc1ccc(/C(=C\n2cnc(-c3cc(C(F)(F)F)cc(C(F)(F)F)c3)n2)C(=O)O)cn1 [Compound 121, (E)-3-(3-(3,5-bis(trifluoromethyl)phenyl)-1H-1,2,4-triazol-1-yl)-2-(6-methoxypyridin-3-yl) acrylic acid] | – | – | > 30
CC(C)OC(=O)/C(=C/n1cnc(-c2cc(C(F)(F)F)cc(C(F)(F)F)c2)n1)c1ccoc1 [Compound 122, isopropyl (E)-3-(3-(3,5-bis (trifluoromethyl)phenyl)-1H-1,2,4-triazol-1-yl)-2-(furan-3-yl) acrylate] | – | – | 0.1 to 5
O=C(O)/C(=C/n1cnc(-c2cc(C(F)(F)F)cc(C(F)(F)F)c2)n1)c1cncnc1 [Compound 123, (E)-3-(3-(3,5-bis(trifluoromethyl)phenyl)-1H-1,2,4-triazol-1-yl)-2-(pyrimidin-5-yl) acrylic acid] | – | – | > 30
O=C(O)/C(=C/n1cnc(-c2cc(C(F)(F)F)cc(C(F)(F)F)c2)n1)c1cncc(F)c1 [Compound 125, (E)-3-(3-(3,5-bis(trifluoromethyl)phenyl)-1H-1,2,4-triazol-1-yl)-2-(5-fluoropyridin-3-yl)acrylic acid] | – | – | > 30
NC(=O)/C(=C/n1cnc(-c2cc(C(F)(F)F)cc(C(F)(F)F)c2)n1)c1cncc(F)c1 [Compound 126, (E)-3-(3-(3,5-Bis(trifluoromethyl)phenyl)-1H-1,2,4-triazol-1-yl)-2-(5-fluoropyridin-3-yl)acrylamide] | > 30 | < 0.1 | < 0.1
COc1ccc(/C(=C\n2cnc(-c3cc(C(F)(F)F)cc(C(F)(F)F)c3)n2)C(N)=O)cn1 [Compound 127, (E)-3-(3-(3,5-bis-(trifluoromethyl)-phenyl)-1H-1,2,4-triazol-1-yl)-2-(6-methoxypyridin-3-yl)acrylamide] | – | – | 0.1 to 5
O=C(O)/C(=C/n1cnc(-c2cc(C(F)(F)F)cc(C(F)(F)F)c2)n1)c1ccoc1 [Compound 128, (E)-3-(3-(3,5-bis(trifluoromethyl)phenyl)-1H-1,2,4-triazol-1-yl)-2-(furan-3-yl) acrylic acid] | – | – | > 30
NC(=O)/C(=C/n1cnc(-c2cc(C(F)(F)F)cc(C(F)(F)F)c2)n1)c1ccoc1 [Compound 129, (E)-3-(3-(3,5-bis(trifluoromethyl)phenyl)-1H-1,2,4-triazol-1-yl)-2-(furan-3-yl) acrylamide] | – | – | 0.1 to 5
Cn1cc(/C(=C\n2cnc(-c3cc(C(F)(F)F)cc(C(F)(F)F)c3)n2)C(=O)O)cn1 [Compound 131, (E)-3-(3-(3,5-bis(trifluoromethyl)phenyl)-1H-1,2,4-triazol-1-yl)-2-(1-methyl-1H-pyrazol-4-yl)acrylic acid] | – | – | 0.1 to 5
NC(=O)/C(=C/n1cnc(-c2cc(C(F)(F)F)cc(C(F)(F)F)c2)n1)c1ccnnc1 [Compound 133, (E)-3-(3-(3,5-bis(trifluoromethyl)phenyl)-1H-1,2,4-triazol-1-yl)-2-(pyridazin-4-yl)acrylamide] | 5 to 30 | < 0.1 | < 0.1
NC(=O)/C(=C/n1cnc(-c2cc(C(F)(F)F)cc(C(F)(F)F)c2)n1)c1cccc(F)n1 [Compound 134, (E)-3-(3-(3,5-bis(trifluoromethyl)phenyl)-1H-1,2,4-triazol-1-yl)-2-(6-fluoropyridin-2-yl)acrylamide] | 0.1 to 5 | 0.1 to 5 | < 0.1
NC(=O)/C(=C/n1cnc(-c2cc(C(F)(F)F)cc(C(F)(F)F)c2)n1)c1cccnc1F [Compound 135, (E)-3-(3-(3,5-bis(trifluoromethyl)phenyl)-1H-1,2,4-triazol-1-yl)-2-(2-fluoropyridin-3-yl)acrylamide] | > 30 | 0.1 to 5 | < 0.1
NC(=O)/C(=C/n1cnc(-c2cc(C(F)(F)F)cc(C(F)(F)F)c2)n1)c1ccc(F)nc1 [Compound 139, (E)-3-(3-(3,5-bis(trifluoromethyl)phenyl)-1H-1,2,4-triazol-1-yl)-2-(6-fluoropyridin-3-yl)acrylamide] | > 30 | 0.1 to 5 | 0.1 to 5
NC(=O)/C(=C/n1cnc(-c2cc(C(F)(F)F)cc(C(F)(F)F)c2)n1)c1cccnc1Cl [Compound 144, (E)-3-(3-(3,5-bis(trifluoromethyl)phenyl)-1H-1,2,4-triazol-1-yl)-2-(2-chloropyridin-3-yl)acrylamide] | > 30 | 0.1 to 5 | 0.1 to 5
NC(=O)/C(=C/n1cnc(-c2cc(C(F)(F)F)cc(C(F)(F)F)c2)n1)c1ccccc1 [Compound 146, (E)-3-(3-(3,5-bis(trifluoromethyl)phenyl)-1H-1,2,4-triazol-1-yl)-2-phenylacrylamide] | > 30 | 0.1 to 5 | 0.1 to 5
NC(=O)/C(=C/n1cnc(-c2cc(C(F)(F)F)cc(C(F)(F)F)c2)n1)c1ccc(-c2ccccc2)c(F)c1 [Compound 150, (E)-3-(3-(3,5-bis(trifluoromethyl)phenyl)-1H-1,2,4-triazol-1-yl)-2-(2-fluorobiphenyl-4-yl)acrylamide] | > 30 | 5 to 30 | 5 to 30
NC(=O)/C(=C/n1cnc(-c2cc(C(F)(F)F)cc(C(F)(F)F)c2)n1)c1ccc(-c2cccnc2)cc1 [Compound 151, (E)-3-(3-(3,5-bis(trifluoromethyl)phenyl)-1H-1,2,4-triazol-1-yl)-2-(4-(pyridin-3-yl)phenyl)acrylamide] | > 30 | 5 to 30 | 0.1 to 5
NC(=O)/C(=C/n1cnc(-c2cc(C(F)(F)F)cc(C(F)(F)F)c2)n1)c1ccc2cn[nH]c2c1 [Compound 152, (E)-3-(3-(3,5-bis(trifluoromethyl)phenyl)-1H-1,2,4-triazol-1-yl)-2-(1H-indazol-6-yl)acrylamide] | > 30 | 0.1 to 5 | 0.1 to 5
NC(=O)/C(=C\n1cnc(-c2cc(C(F)(F)F)cc(C(F)(F)F)c2)n1)c1cncnc1 [Compound 153, (Z)-3-(3-(3,5-bis(trifluoromethyl)phenyl)-1H-1,2,4-triazol-1-yl)-2-(pyrimidin-5-yl)acrylamide] | > 30 | 0.1 to 5 | < 0.1
NC(=O)/C(=C\n1cnc(-c2cc(C(F)(F)F)cc(C(F)(F)F)c2)n1)c1ccc(F)nc1 [Compound 154, (Z)-3-(3-(3,5-bis(trifluoromethyl)phenyl)-1H-1,2,4-triazol-1-yl)-2-(6-fluoropyridin-3-yl)acrylamide] | – | – | 0.1 to 5
NC(=O)/C(=C\n1cnc(-c2cc(C(F)(F)F)cc(C(F)(F)F)c2)n1)c1cccnc1F [Compound 157, (Z)-3-(3-(3,5-bis(trifluoromethyl)phenyl)-1H-1,2,4-triazol-1-yl)-2-(2-fluoropyridin-3-yl)acrylamide] | 0.1 to 5 | 0.1 to 5 | 0.1 to 5
